What was measured:
5-LO [1] = molecular target: T1, 5-LO (Homo sapiens, UniProt P09917); test: Test a) in vitro inhibition of LTB4 formation in heparinised human blood challenged with A23187 (radioimmunoassay); assay type: cell-based
T1 construct: incubating a test compound with heparinised human blood; endogenous in cells; host or cells: blood cells in heparinised human whole blood
T1 sequence (P09917 1-674): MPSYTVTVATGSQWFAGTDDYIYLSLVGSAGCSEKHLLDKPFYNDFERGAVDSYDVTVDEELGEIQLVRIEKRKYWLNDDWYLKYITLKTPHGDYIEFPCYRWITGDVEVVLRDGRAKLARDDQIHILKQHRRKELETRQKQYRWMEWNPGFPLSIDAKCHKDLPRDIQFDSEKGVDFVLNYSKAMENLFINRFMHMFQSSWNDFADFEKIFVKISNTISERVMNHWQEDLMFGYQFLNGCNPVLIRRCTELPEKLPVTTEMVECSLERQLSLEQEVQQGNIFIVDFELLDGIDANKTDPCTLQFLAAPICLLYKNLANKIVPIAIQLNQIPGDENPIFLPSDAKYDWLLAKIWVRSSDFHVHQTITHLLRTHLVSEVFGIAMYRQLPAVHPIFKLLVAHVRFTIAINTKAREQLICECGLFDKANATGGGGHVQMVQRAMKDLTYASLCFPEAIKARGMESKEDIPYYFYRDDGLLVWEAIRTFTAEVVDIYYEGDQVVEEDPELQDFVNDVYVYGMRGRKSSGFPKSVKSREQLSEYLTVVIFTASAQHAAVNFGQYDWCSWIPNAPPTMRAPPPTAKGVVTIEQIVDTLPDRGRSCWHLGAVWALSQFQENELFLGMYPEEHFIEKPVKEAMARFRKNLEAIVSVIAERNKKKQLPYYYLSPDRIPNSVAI
Procedure: a) An in vitro assay system involving incubating a test compound with heparinised human blood, prior to challenge with the calcium ionophore A23187 and then indirectly measuring the inhibitory effects on 5-LO by assaying the amount of LTB4 using specific radioimmunoassays described by Carey and Forder (Prostaglandins, Leukotrienes Med., 1986, 22, 57; Prostaglandins, 1984, 28, 666; Brit. J. Pharmacol., 1985, 84, 34P) which involve the use of a protein-LTB4 conjugate produced using the procedure of Young et alia (Prostaglandins, 1983, 26(4), 605-613). The effects of a test compound on the enzyme cyclooxygenase (which is involved in the alternative metabolic pathway for arachidonic acid and gives rise to prostaglandins, thromboxanes and related metabolites) may be measured at the same time using the specific radioimmunoassay for thromboxane B2 (TxB2) described by Carey and Forder (see above). This test provides an indication of the effects of a test compound against 5-LO and also cyclooxygenase in the presence of blood cells and proteins. It permits the selectivity of the inhibitory effect on 5-LO or cyclooxygenase to be assessed.

5-LO [2] = molecular target: T2, 5-LO (Rattus norvegicus, UniProt P12527); test: Test c) in vivo zymosan-induced LTB4 liberation in rat air pouch, oral compound; conditions: 3 h; test c)
T2 construct: an air pouch generated within the subcutaneous tissue of the back of male rats; endogenous in cells; host or cells: cells of the zymosan-inflamed air pouch of live male rats
T2 sequence (P12527 1-673): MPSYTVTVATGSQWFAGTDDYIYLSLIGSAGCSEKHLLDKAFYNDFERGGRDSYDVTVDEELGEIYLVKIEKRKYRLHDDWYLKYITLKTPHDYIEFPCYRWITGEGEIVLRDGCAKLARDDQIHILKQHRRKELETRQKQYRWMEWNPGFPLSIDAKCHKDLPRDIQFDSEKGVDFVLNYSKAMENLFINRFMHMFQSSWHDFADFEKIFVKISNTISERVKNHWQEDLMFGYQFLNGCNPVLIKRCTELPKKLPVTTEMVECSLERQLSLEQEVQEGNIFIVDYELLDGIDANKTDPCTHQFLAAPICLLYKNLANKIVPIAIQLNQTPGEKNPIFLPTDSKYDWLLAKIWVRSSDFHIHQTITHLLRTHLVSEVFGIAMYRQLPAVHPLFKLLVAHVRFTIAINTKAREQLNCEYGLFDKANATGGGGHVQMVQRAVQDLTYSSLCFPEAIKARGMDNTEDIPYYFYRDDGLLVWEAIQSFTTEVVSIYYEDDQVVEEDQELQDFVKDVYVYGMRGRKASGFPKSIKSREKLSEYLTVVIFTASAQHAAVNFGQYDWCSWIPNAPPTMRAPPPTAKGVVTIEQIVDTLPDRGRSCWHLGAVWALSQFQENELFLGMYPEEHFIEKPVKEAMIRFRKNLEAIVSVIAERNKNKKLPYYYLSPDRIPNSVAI
Procedure: c) An in vivo system involving measuring the effects of a test compound administered orally against the liberation of LTB4 induced by zymosan within an air pouch generated within the subcutaneous tissue of the back of male rats. The rats are anaesthetised and air pouches are formed by the injection of sterile air (20 ml). A further injection of air (10 ml) is similarly given after 3 days. At 6 days after the initial air injection the test compound is administered (usually orally as the suspension produced when a solution of the test compound in dimethylsulphoxide is added to hydroxypropylmethylcellulose), followed by the intrapouch injection of zymosan (1 ml of a 1% suspension in physiological saline). After 3 hours the rats are killed, the air pouches are lavaged with physiological saline, and the specific radioimmunoassay described above is used to assay LTB4 in the washings. This test provides an indication of inhibitory effects against 5-LO in an inflammatory milieu.

IC50 (5-LO [1]) [µM] | ED50 (5-LO [2]) [mg/kg] | Compound
1 | 1.5 | COC1(c2cccc(Sc3ccc(NS(C)(=O)=O)c(Cl)c3)c2)CCOCC1 [N-{2-chloro-4-[3-(4-methoxytetrahydropyran-4-yl)phenylthio]phenyl)-methanesulphonamide]
0.09 | 1 | COC1(c2cccc(Sc3ccc(N(C)S(C)(=O)=O)cc3Cl)c2)CCOCC1 [N-{3-chloro-4-[3-(4-methoxytetrahydropyran-4-yl)phenylthio]phenyl}-N-methylmethanesulphonamide]

Reference: US5236948A, “Sulphonamide derivatives” (Imperial Chemical Industries PLC, priority 1991, dated 1993)
